# Test results: patent US20250171753A1, “PEPTIDE AND USE THEREOF IN THE PREVENTION OF THERAPY-RELATED LEUKEMIA” (UNIVERSITÄT ULM, priority 2022, published 2025)
# Where no end group is shown, it is not given here.
# Key:
# [1] = system: K562/MLL cells; test: Cell survival of K562/MLL cells by FSC/SSC gating in FACS; type: cell-based; details: for toxic effects toward leukemia cells (summary statement): leukemia cells after doxorubicin treatment; for effect of peptide on cell survival after doxorubicin treatment: K562/MLL nucleofected with 0-600 μg peptide per 1×10^6 cells; for effect of peptide on cell survival after doxorubicin treatment / cell survival: 2 μM doxorubicin 4 h; for cell survival: 72 h; for toxicity of the peptide in K562/MLL cells: K562/MLL nucleofected with different peptide concentrations, 2 μM doxorubicin
# Protocol: (§1) K562/MLL cells were divided 1:2 before the start of the experiment and transfected with the plasmid (2×10^6 cells) or nucleofected with the peptide (1×10^6 cells) on the second day. After 24 h, the cells were then treated with 2 μM doxorubicin (Uniklinik Ulm, Germany) and after 4 h incubation, the cells were centrifuged, the supernatant discarded and the cells taken up in 2 ml PBS (Gibco/Thermo Fisher Scientific). After centrifugation again, the supernatant was discarded and the cells were seeded in 2 ml of new culture medium for 72 h.
# Use of the fluorescence-based assay system for recombination measurements with K562/MLL or HeLa/MLL cells with chromosomally integrated plasmid pHR-EGFP/3′EGFP-MLLbcr.fwd is described in detail in Ireno et al. 2014 and Gole et al. 2015, respectively. For the acquisition of recombination data, cells were harvested, pelleted, resuspended in PBS and then re-sedimented. The cell pellets were stored on ice and resuspended in PBS (mixed with 0.2% EDTA) only shortly before FACS measurement. This suspension was transferred to FACS tubes and the fluorescence of the cells was detected on the FACSCalibur™ (BD Biosciences, San Jose, California, USA). To achieve a separation between living and dead cells, the cell clouds were plotted linearly against FSC/SSC orientation in a dot plot diagram. Depending on cell size and granularity, the living cells were distinguished from cell debris and dead cells by placing a marker (gate) around the “living cell cloud”. Subsequently, the selected cell population was separated in another dot-plot diagram with FL-1/FL-2 alignment depending on their fluorescence properties (FL-1 for green fluorescence, FL-2 for orange intrinsic fluorescence). Depending on the approach, 150,000 to 1,000,000 living cells were analyzed. Recombination frequencies were determined from the proportion of green fluorescent cells in the living cell population.
# K562/MLL cells were electroporated with these expression plasmids for the different Ku80 variants or the empty vector (control) and 24 h later treated for 4 h with the chemotherapeutic agent doxorubicin (2 μM). After washing the cells, they were cultured in fresh medium for a further 72 h. The subsequent detection of green fluorescent cells for analysis of recombination frequencies was achieved by FACS using a diagonal gate in a FL-1/FL-2 dot plot diagram. Living cells were pre-selected by FSC/SSC gating to distinguish between EGFP-positive and -negative within the living cells.
# The peptides were introduced into K562/MLL cells by Nucleofector™ technology as described above. The cells were nucleofected with 0-600 μg peptide per 1×10^6 cells and treated with 2 μM doxorubicin for 4 h after 24 h. After washing, the cells were cultured for another 72 h in fresh medium. […] Subsequently, recombination frequencies were determined.
# Cell survival was determined in parallel with the recombination measurements.
# [2] = system: HeLa/MLL cells; test: Cell survival of HeLa/MLL cells by FSC/SSC gating in FACS; type: cell-based, human; details: HeLa/MLL nucleofected with peptide; 0.5 μM doxorubicin 4 h; 72 h
# Protocol: HeLa/MLL cells (0.5×10^6) were nucleofected with the peptide on the first day and split into three 6-wells for further cultivation. On the second day, the cells were treated with 0.5 μM doxorubicin for 4 h. […]. Afterwards, the medium was removed, the cells were washed with 2 ml PBS and 2 ml new medium was added. For FACS measurements, the cells were washed with PBS after 72 h of culture, 200 μl of trypsin (PAN Biotech, Aidenbach, Germany) was added and the reaction was stopped with medium. Genomic DNA was isolated without recultivation after doxorubicin treatment.
# Use of the fluorescence-based assay system for recombination measurements with K562/MLL or HeLa/MLL cells with chromosomally integrated plasmid pHR-EGFP/3′EGFP-MLLbcr.fwd is described in detail in Ireno et al. 2014 and Gole et al. 2015, respectively. […] This suspension was transferred to FACS tubes and the fluorescence of the cells was detected on the FACSCalibur™ (BD Biosciences, San Jose, California, USA). […] Subsequently, the selected cell population was separated in another dot-plot diagram with FL-1/FL-2 alignment depending on their fluorescence properties (FL-1 for green fluorescence, FL-2 for orange intrinsic fluorescence). Depending on the approach, 150,000 to 1,000,000 living cells were analyzed. […]
# [3] = system: MLLbcr rearrangements in K562/MLL cells; test: Fluorescence-based (EGFP reconstitution) recombination assay for MLLbcr rearrangements in K562/MLL cells after doxorubicin; type: cell-based, human; details: expression plasmid electroporated into K562/MLL; 2 μM doxorubicin 4 h after 24 h; 72 h culture; vs empty vector control set to 100%
# Protocol: as §1
# Use of the fluorescence-based assay system for recombination measurements with K562/MLL or HeLa/MLL cells with chromosomally integrated plasmid pHR-EGFP/3′EGFP-MLLbcr.fwd is described in detail in Ireno et al. 2014 and Gole et al. 2015, respectively. For the acquisition of recombination data, cells were harvested, pelleted, resuspended in PBS and then re-sedimented. The cell pellets were stored on ice and resuspended in PBS (mixed with 0.2% EDTA) only shortly before FACS measurement. This suspension was transferred to FACS tubes and the fluorescence of the cells was detected on the FACSCalibur™ (BD Biosciences, San Jose, California, USA). To achieve a separation between living and dead cells, the cell clouds were plotted linearly against FSC/SSC orientation in a dot plot diagram.
# [4] = K562/MLL nucleofected with 50 μg peptide
# [5] = K562/MLL nucleofected with 100 μg peptide
molecule,measurement,setting,value
ITKEEASGSSVTAEEAKKFLA [SEQ ID No. 4],toxic effects toward leukemia cells (summary statement),[1],without exhibiting toxic effects
CC[C@H](C)[C@H](NC(=O)CNC(=O)[C@H](CC(=O)O)NC(=O)[C@H](CCC(N)=O)NC(=O)[C@@H](NC(=O)[C@@H](NC(=O)[C@@H](NC(=O)[C@@H](N)CCC(=O)O)[C@@H](C)CC)C(C)C)C(C)C)C(=O)N[C@H](C(=O)N[C@@H](CC(C)C)C(=O)N[C@H](C(=O)N[C@H](C(=O)N[C@@H](CCCCN)C(=O)N[C@@H](CCC(=O)O)C(=O)N[C@@H](CCC(=O)O)C(=O)N[C@@H](C)C(=O)N[C@@H](CO)C(=O)NCC(=O)N[C@@H](CO)C(=O)N[C@@H](CO)C(=O)N[C@H](C(=O)N[C@H](C(=O)N[C@@H](C)C(=O)N[C@@H](CCC(=O)O)C(=O)N[C@@H](CCC(=O)O)C(=O)N[C@@H](C)C(=O)N[C@@H](CCCCN)C(=O)N[C@@H](CCCCN)C(=O)O)[C@@H](C)O)C(C)C)[C@@H](C)O)[C@@H](C)CC)[C@@H](C)O [Ku3],effect on cell survival,[2],without affecting cell survival
same,effect of peptide on cell survival after doxorubicin treatment,[1],not affected
same,cell survival,[1]; [4],not affected
same,cell survival,[1]; [5],not affected
same,toxic effects toward leukemia cells (summary statement),[1],without exhibiting toxic effects
RVLVKQKKASFEEASNQLINHIEQFL [Ku2],reduction of cell survival after doxorubicin treatment to,[1]; K562/MLL nucleofected with 200-400 μg peptide,≥ half
same,toxicity of the peptide in K562/MLL cells,[1],caused toxicities
"COc1cccc2c1C(=O)c1c(O)c3c(c(O)c1C2=O)C[C@@](O)(C(=O)CO)C[C@@H]3O[C@H]1C[C@H](N)[C@H](O)[C@H](C)O1 [doxorubicin, reference compound]",cell survival after doxorubicin treatment,"[1]; human, 4 h, 2 μM",70-80%
"EIVVQDGITLITKAEASGSSVTAEEAKK [Ku3 mut1, reference compound]",cell survival,[1]; [4],not affected
ITKEEASGSSVTAEEAKKFLAG [Ku1],effect of peptide on cell survival after doxorubicin treatment,[1],did not affect cell survival
"VDSTTIEKSIAEVAEEQESILKKVAGGT [scrambled peptide, reference compound]",cell survival,[1]; [5],not affected
ASFEEASNQLINHIEQFLDTNETPYFMKSI [Ku4],toxicity of the peptide in K562/MLL cells,[1],caused toxicities
same,reduction of cell survival after doxorubicin treatment to,[1]; K562/MLL nucleofected with ≥300 μg peptide,≥ half
"Ku80ct: Ku80 amino acids 592-709 fused behind the amino acids PTAKKLK of the nuclear localization signal, expressed from plasmid (protein, UniProt P13010 592-709, looked up, fragment, N-terminal NLS peptide PTAKKLK, Ku80 amino acids 592-709 fused behind the amino acids PTAKKLK of the nuclear localization signal, expressed from plasmid) VNPAENFRVLVKQKKASFEEASNQLINHIEQFLDTNETPYFMKSIDCIRAFREEAIKFSEEQRFNNFLKALQEKVEIKQLNHFWEIVVQDGITLITKEEASGSSVTAEEAKKFLAPKD",MLLbcr rearrangements (recombination frequency) lowered by,[3],45%
